As usually defined, the pIC50 is the negative decadic logarithm of the IC50, by convention in mol/L.

Structures are written as SMILES. pIC50: −log10 of the molar value.

The target of the assay is T1, ENaC (Epithelial Sodium Channel) (Mus musculus, UniProt Q61180+Q9WU38+Q9WU39).
T1 sequence (Q61180 1-699): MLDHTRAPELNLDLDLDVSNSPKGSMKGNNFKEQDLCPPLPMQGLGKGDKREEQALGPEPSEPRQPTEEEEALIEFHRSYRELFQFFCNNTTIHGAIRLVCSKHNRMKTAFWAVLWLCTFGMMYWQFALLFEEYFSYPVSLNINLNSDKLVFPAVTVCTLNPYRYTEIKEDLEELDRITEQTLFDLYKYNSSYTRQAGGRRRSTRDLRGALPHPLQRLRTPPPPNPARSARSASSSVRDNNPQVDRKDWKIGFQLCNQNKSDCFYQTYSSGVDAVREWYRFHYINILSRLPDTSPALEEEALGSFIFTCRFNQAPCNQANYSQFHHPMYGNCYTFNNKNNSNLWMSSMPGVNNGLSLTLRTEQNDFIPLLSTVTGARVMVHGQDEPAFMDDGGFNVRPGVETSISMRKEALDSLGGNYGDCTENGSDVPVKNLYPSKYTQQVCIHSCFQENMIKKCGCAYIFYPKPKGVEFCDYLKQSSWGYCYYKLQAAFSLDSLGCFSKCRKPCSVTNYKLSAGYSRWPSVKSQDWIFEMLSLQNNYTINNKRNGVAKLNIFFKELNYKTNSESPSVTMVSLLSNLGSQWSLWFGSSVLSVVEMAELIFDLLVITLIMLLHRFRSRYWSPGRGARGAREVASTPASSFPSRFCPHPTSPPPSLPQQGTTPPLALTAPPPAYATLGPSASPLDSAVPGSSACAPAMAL
T1 sequence (Q9WU38 1-638): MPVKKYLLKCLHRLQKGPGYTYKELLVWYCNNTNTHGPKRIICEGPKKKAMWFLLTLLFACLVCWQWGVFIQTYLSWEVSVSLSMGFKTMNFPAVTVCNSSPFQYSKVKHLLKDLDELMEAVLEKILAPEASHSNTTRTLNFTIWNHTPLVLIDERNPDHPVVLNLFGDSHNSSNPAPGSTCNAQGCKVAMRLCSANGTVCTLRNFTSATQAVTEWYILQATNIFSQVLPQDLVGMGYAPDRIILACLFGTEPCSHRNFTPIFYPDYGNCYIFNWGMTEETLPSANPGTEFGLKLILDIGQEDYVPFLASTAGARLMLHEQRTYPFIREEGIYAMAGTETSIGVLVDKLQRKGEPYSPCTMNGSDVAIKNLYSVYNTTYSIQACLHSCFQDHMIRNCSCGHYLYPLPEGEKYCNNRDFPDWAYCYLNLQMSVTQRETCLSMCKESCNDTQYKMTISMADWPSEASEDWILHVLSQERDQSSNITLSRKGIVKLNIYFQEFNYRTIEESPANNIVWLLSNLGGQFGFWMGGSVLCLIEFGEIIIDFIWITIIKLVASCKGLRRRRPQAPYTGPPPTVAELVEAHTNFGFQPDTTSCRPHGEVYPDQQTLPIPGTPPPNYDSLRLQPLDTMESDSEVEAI
T1 sequence (Q9WU39 1-655): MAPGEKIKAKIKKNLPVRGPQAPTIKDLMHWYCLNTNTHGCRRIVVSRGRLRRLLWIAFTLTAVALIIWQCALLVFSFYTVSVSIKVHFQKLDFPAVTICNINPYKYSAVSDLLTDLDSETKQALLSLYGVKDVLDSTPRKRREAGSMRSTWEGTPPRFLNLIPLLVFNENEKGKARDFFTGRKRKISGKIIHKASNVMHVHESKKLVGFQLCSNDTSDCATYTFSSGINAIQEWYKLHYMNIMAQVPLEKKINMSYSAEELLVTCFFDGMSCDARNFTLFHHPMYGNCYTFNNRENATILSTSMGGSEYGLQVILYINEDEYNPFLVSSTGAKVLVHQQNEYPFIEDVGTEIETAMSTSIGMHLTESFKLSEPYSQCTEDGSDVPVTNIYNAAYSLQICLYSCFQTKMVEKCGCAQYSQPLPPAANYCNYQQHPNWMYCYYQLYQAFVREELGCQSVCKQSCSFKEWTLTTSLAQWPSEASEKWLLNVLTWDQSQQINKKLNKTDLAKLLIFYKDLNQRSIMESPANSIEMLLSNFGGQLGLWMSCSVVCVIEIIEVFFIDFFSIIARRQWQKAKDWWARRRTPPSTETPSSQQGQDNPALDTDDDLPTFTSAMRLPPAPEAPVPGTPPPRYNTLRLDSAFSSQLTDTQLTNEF
Put plainly: Ussing Chamber assay (amiloride sensitive short circuit current in M-1 cells). In kind it is cell-based. The following applies: Mouse kidney M-1 cells, apical administration, 37° C. The method, then:
The IC50 values of the example compounds given above were determined in the Ussing Chamber assay. Ussing Chamber: Mouse kidney M-1 cells were cultivated in DMEM containing 5% FCS and 5 μM dexamethasone for 10 to 12 days on polyester transwell filters. Filters were inserted into a teflon-coated well-plate which fit into the ussing chamber system. Prior to measurement the medium of M-1 cells was replaced with Caco-2 transport buffer (Invitrogen, Germany). During measurements, the Ussing chamber temperature was kept at 37° C. Short circuit currents (I_sc) were measured in the voltage-clamp mode with the software package Lab View for data acquisition and analysis. The transepithelial electrical resistance (TEER) was determined by the application of voltage steps of ±5 mV every 5 sec. Compounds were administered at a final concentration of 3 μM or at increasing concentrations (1-3-10 μM) to the apical solution. At the end of each experiment the amiloride sensitive I_SC was measured by adding 3 μM amiloride to the apical compartment. Results are expressed as inhibition in percent of the amiloride effect or as IC50. With the example compounds given above, the following IC50 values were determined in the Ussing Chamber assay: […]
Turning to `CCn1c(CNC(=O)c2nc(Cl)cnc2N)[n+](CC)c2ccc(C(=O)N3CCNCC3)cc21` [Example 1.01], the pIC50 was 8.15. `CCn1c(CNC(=O)c2nc(Cl)cnc2N)[n+](CC)c2ccc(C(=O)N(C)CCCNC)cc21` [Example 1.02] gave a pIC50 of 8.40. Against the preceding compound, the pIC50 is 0.25 log units higher. With `CCn1c(CNC(=O)c2nc(Cl)cnc2N)[n+](CC)c2ccc(C(=O)NCCN3CCOCC3)cc21` [Example 1.03] the figure was 8.15; with `CCn1c(CNC(=O)c2nc(Cl)cnc2N)[n+](CC)c2ccc(C(=O)NCCCNC)cc21` [Example 1.04], 8.52; with `CCn1c(CNC(=O)c2nc(Cl)cnc2N)[n+](CC)c2ccc(C(=O)N(CCN)CC(C)C)cc21` [Example 1.05], 8.10. The figure for `CCn1c(CNC(=O)c2nc(Cl)cnc2N)[n+](CC)c2ccc(C(=O)NCCN(C)C)cc21` [Example 1.06] is 8.40. For `CCn1c(CNC(=O)c2nc(Cl)cnc2N)[n+](CC)c2ccc(C(=O)N3CCN(C)CC3)cc21` [Example 1.07], the negative logarithm of the IC50 (pIC50) is 8.30. Turning to `CCn1c(CNC(=O)c2nc(Cl)cnc2N)[n+](CC)c2ccc(C(=O)NCCNC)cc21` [Example 1.08], the pIC50 is 8.22. As to `CCn1c(CNC(=O)c2nc(Cl)cnc2N)[n+](CC)c2ccc(C(=O)NC[C@H](O)[C@@H](O)[C@H](O)[C@H](O)CO)cc21` [Example 1.09], the pIC50 is 8.22.

On to `CCn1c(CNC(=O)c2nc(Cl)cnc2N)[n+](CC)c2ccc(C(=O)NCCCN)cc21` [Example 1.10], for which the pIC50 was 8.40. Regarding `CCn1c(CNC(=O)c2nc(Cl)cnc2N)[n+](CC)c2ccc(C(=O)N3CCC(NC(=O)CN(C)C)CC3)cc21` [Example 1.11], the pIC50 is 8.30. The figure for `CCn1c(CNC(=O)c2nc(Cl)cnc2N)[n+](CC)c2cc(C(=O)N3CCC(N(C)C)CC3)ccc21` [Example 1.12] is 8.40; for `CCn1c(CNC(=O)c2nc(Cl)cnc2N)[n+](CC)c2ccc(C(=O)N(CCN)CCN)cc21` [Example 1.13] it is 8.15.

Take `CCn1c(CNC(=O)c2nc(Cl)cnc2N)[n+](CC)c2ccc(C(=O)N(C)CCNC)cc21` [Example 1.14]: the pIC50 is 8.40. For the compound `CCn1c(CNC(=O)c2nc(Cl)cnc2N)[n+](CC)c2ccc(C(=O)N(C)CCN3CCOCC3)cc21` [Example 1.15], the pIC50 was 8.22. In turn, `CCn1c(CNC(=O)c2nc(Cl)cnc2N)[n+](CC)c2cc(C(=O)N3CCN(CP(C)(C)=O)CC3)ccc21` [Example 1.16] had a pIC50 of 7.92. With `CCn1c(CNC(=O)c2nc(Cl)cnc2N)[n+](CC)c2ccc(C(=O)N(C)CCCN(C)C)cc21` [Example 1.17] the figure was 8.15; with `CCCCN1CCN(C(=O)c2ccc3c(c2)[n+](CC)c(CNC(=O)c2nc(Cl)cnc2N)n3CC)CC1` [Example 1.18], 8.30; with `CCn1c(CNC(=O)c2nc(Cl)cnc2N)[n+](CC)c2ccc(C(=O)N3CCCNCC3)cc21` [Example 1.19], 8.40. `CCn1c(CNC(=O)c2nc(Cl)cnc2N)[n+](CC)c2ccc(C(=O)N(C)CCN(C)C)cc21` [Example 1.20]: the negative-log IC50 (pIC50) is 8.22. Compound `CCn1c(CNC(=O)c2nc(Cl)cnc2N)[n+](CC)c2ccc(C(=O)N3CCC(NC(=O)CN)CC3)cc21` [Example 1.21] had a pIC50 of 8.30. The pIC50 values of the last two compounds are within 0.2 log units of each other.

For `CCn1c(CNC(=O)c2nc(Cl)cnc2N)[n+](CC)c2cc(C(=O)NCCOCP(C)(C)=O)ccc21` [Example 1.22], the pIC50 was 7.89.

(Values after patent publication US9938256B2, “Annelated benzamides” (Boehringer Ingelheim International GmbH, priority 2015, dated 2018).)
